# Like-named read-outs stand apart in the source and are kept apart here.
# What was measured:
# [1] = tested on: Human myeloid monocytic leukemia cell line (MV-4-11); test: Inhibition of MV-4-11 cell proliferation (CellTiter luminescent viability); format: cell-based; settings: for inhibition at 0.01 µM / inhibition at 0.5 µM: Homo sapiens, MV4-11, 96 hours; for inhibition at 0.01 µM: MV-4-11, 10 nM, read-out: Inhibition Rate at 10 nM (%); for inhibition at 0.5 µM: MV-4-11, 500 nM, read-out: Inhibition Rate at 500 nM (%)
# Method in brief: (§1)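 Cells are seeded in 96-well plates, cultured at 37 °C, 5% CO2, and treated next day with 5-fold serial compound dilutions (stock series from 2000 μM; 0.5 μL into 100 μL medium). Viability is read by CellTiter-Meiluncell luminescence after the set exposure, and IC50 is taken from growth-inhibition curves.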
# [2] = tested on: Human non-small cell lung cancer cell line NCI-H2228; test: Inhibition of H2228 cell proliferation (CellTiter luminescent viability); settings: Table IB2, ALK inhibitor-based, 96 hours; for inhibition at 0.01 µM: H2228, 10 nM, read-out: Inhibition Rate at 10 nM (%); for inhibition at 0.5 µM: H2228, 500 nM, read-out: Inhibition Rate at 500 nM (%)
# Experimental: (§2) The tumor cells used herein were cultured in a cell culture medium listed in table 3 at 37 °C in an incubator with 5% CO2. Prior to experimentation, all cell lines used were correctly identified by STR profiling, and tested negative for mycoplasma contamination using a mycoplasma detection kit through routine screenings.
# (§3) The IC50 values of the compounds of the present disclosure (including the compounds in Table 1, Table 2, and Examples 1-468) were determined using the CellTiter-Meiluncell Luminescent Cell Viability Assay Kit from Dalian Meilun Biotech Co., Ltd. The detailed procedure is as follows: Tumor cells were seeded in 96-well cell culture plates at the densities specified in Table 4. On the following day, the test compounds of the present disclosure were subjected to serial dilution. The dilution can be performed according to one of the following two methods: • (1) The first dilution method: The test compounds of the present disclosure (including the compounds in Table 1, Table 2, and Examples 1-468) were subjected to 5-fold serial dilutions starting from a highest concentration of 2000 μM, resulting in a total of 9 concentrations from high to low (2000, 400, 80, 16, 3.2, 0.64, 0.128, 0.0256, 0.00512 μM). Subsequently, 0.5 μL of the test compound dilution was transferred into the 96-well plate containing the cells, with each well containing 100 μL of cell culture medium. […] Into the 96-well plate, the diluted test compounds and corresponding detection reagents were added, resulting in final test compound concentrations of 500 nM and 10 nM, respectively. The experimental procedure is described below using the diluted 2 μM test compound as an example.
# (§4) 0.5 μL of the aforementioned diluted compound of the present disclosure (including the compounds in Table 1, Table 2, and Examples 1-468) was added to the seeded cells in 100 μL of medium, yielding a final test compound concentration of 10 nM. After the cells were treated with the compounds of the present disclosure for a specified period, the cell viability assay reagent was added to the culture medium according to the kit's instructions to determine cell viability. […] All controls were treated using the same procedure as the compounds of the present disclosure. The growth inhibition curves for the compounds of the present disclosure were plotted using Prism GraphPad software, and the IC50 values were calculated therefrom.
# [3] = tested on: Human large cell immunoblastic lymphoma cell line SR; test: Inhibition of SR cell proliferation (CellTiter luminescent viability); format: cell-based; settings: 96 hours; for inhibition at 0.01 µM / inhibition at 0.5 µM: Homo sapiens; for inhibition at 0.01 µM: read-out: Inhibition Rate at 10 nM (%); for inhibition at 0.5 µM: read-out: Inhibition Rate at 500 nM (%); for IC50: read-out: Inhibitory activity (IC50, nM) on tumor cell proliferation, SR
# Method in brief: as §1
# [4] = tested on: Human non-small cell lung cancer cell line NCI-H1975; test: Inhibition of H1975 cell proliferation (CellTiter luminescent viability); format: cell-based; settings: Table IC1, BTK inhibitor-based; H1975, 96 hours; read-out: Inhibitory activity (IC50, nM) on tumor cell proliferation, H1975
# Experimental: as §2, §3, §4
# [5] = tested on: Human gastric cancer cell line MGC803; test: Inhibition of MGC803 tumor cell proliferation (CellTiter luminescent viability); format: cell-based; settings: MGC803, 96 hours, read-out: Inhibitory activity (IC50, nM) on tumor cell proliferation, MGC803
# Experimental: as §2, §3, §4
# [6] = tested on: JEKO-1; test: Inhibition of JEKO-1 cell proliferation (CellTiter luminescent viability); format: cell-based, human; settings: JEKO-1, 96 hours, read-out: Inhibitory activity (IC50, nM) on tumor cell proliferation, JEKO-1
# Experimental: as §2, §3, §4
# [7] = tested on: Human Multiple myeloma cell line (MM.1S); test: Inhibition of MM.1S cell proliferation (CellTiter luminescent viability); format: cell-based; settings: 96 hours, read-out: Inhibitory activity (IC50, nM) on tumor cell proliferation, MM.1S
# Method in brief: as §1
# [8] = tested on: Human T lymphocytic leukemia cell line (Jurkat); test: Inhibition of Jurkat cell proliferation (CellTiter luminescent viability); format: cell-based; settings: 96 hours, read-out: Inhibitory activity (IC50, nM) on tumor cell proliferation, Jurkat
# [9] = tested on: Human diffuse large B-cell lymphoma cell line (WSU-DLCL2); test: Inhibition of WSU-DLCL2 cell proliferation (CellTiter luminescent viability); format: cell-based
# Experimental: as §2, §3, §4
# [10] = tested on: Human Acute T Lymphoblastic Leukemia Cells (Molt-4); test: Inhibition of Molt-4 cell proliferation (CellTiter luminescent viability); format: cell-based; settings: Molt-4
# [11] = biological target: T1, human Cereblon WT GST-tagged protein (CRBN) (Homo sapiens, UniProt Q96SW2); test: CRBN binding by HTRF (Cereblon binding kit)
# T1 construct: purchased CISBIO 64BDCRBNPEH
# T1 sequence (Q96SW2 whole entry): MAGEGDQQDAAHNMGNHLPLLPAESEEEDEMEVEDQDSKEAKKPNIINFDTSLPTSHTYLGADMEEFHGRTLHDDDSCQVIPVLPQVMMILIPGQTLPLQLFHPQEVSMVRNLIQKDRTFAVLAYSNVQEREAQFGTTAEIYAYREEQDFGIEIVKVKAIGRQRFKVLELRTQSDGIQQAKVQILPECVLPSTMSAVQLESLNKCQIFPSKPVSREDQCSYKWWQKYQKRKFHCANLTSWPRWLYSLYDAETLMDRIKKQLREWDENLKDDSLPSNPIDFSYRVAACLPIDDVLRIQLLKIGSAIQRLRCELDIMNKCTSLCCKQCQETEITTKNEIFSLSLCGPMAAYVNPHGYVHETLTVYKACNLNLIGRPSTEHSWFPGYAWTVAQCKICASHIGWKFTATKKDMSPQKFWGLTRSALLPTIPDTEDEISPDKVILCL
# Method in brief: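 GST-tagged human Cereblon WT was incubated 3 h at room temperature with compound, thalidomide-Re tracer and Eu anti-GST antibody. Final compound concentrations were 10 to 0.00064 µM (7 points) or 2 and 0.5 µM. Inhibition rate was calculated from HTRF 665/620 nm ratios versus solvent and blank controls.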
# [12] = tested on: Human B-Cell Lymphoma Cells (RPMI-8226); test: Inhibition of RPMI-8226 cell proliferation (CellTiter luminescent viability); format: cell-based; settings: Table IA4, IRAK4 inhibitor-based, RPMI-8226, 500 nM, 96 hours, read-out: Inhibition Rate at 500 nM (%)
# [13] = as above; format: cell-based; settings: Homo sapiens; Table IA4, IRAK4 inhibitor-based; RPMI-8226, 10 nM, 96 hours; read-out: Inhibition Rate at 10 nM (%)
# [14] = Table IB2, ALK inhibitor-based, 10 nM
# [15] = Table IB2, ALK inhibitor-based, 500 nM
# [16] = Table IA3, IRAK4 inhibitor-based
# [17] = Table IA1, IRAK4 inhibitor-based
smiles,measurement,setting,value
"COc1cc(N2CCC(N(C)Cc3ccc4c(c3)CN(N3CCC(=O)NC3=O)C4=O)CC2)ccc1Nc1ncc(Cl)c(Nc2ccccc2P(C)(C)=O)n1 [GT-08148, 1-(5-(((1-(4-((5-chloro-4-((2-(dimethylphosphoryl)phenyl)amino)pyrimidin-2-yl)amino)-3-methoxyphenyl)piperidin-4-yl)(methyl)amino)methyl)-1-oxoisoindolin-2-yl)dihydropyrimidine-2,4 (1H,3H)-dione]",inhibition at 0.01 µM,"[1]; Table IB2, ALK inhibitor-based",5 to 10%
same,inhibition at 0.5 µM,"[1]; Table IB2, ALK inhibitor-based",60 to 80%
same,inhibition at 0.01 µM,[2],15 to 20%
same,inhibition at 0.5 µM,[2],45 to 55%
same,inhibition at 0.01 µM,[3]; [14],30 to 45%
same,inhibition at 0.5 µM,[3]; [15],90 to 100%
"C=CC(=O)N1CCC(c2ccc(C(N)=O)c(-c3ccc(Oc4ccccc4)cc3)n2)CC1 [Orelabrutinib, reference compound]",IC50,[4],> 10000 nM
same,IC50,"[5]; Table IC1, BTK inhibitor-based",> 10000 nM
same,IC50,"[6]; Table IC1, BTK inhibitor-based",> 10000 nM
same,IC50,"[7]; Table IC1, BTK inhibitor-based",> 10000 nM
same,IC50,"[8]; Table IC1, BTK inhibitor-based",> 10000 nM
"C=CC(=O)N1CCC[C@@H](n2nc(-c3ccc(Oc4ccccc4)cc3)c3c(N)ncnc32)C1 [ibrutinib, Ibrutinib, reference compound]",IC50,[4],1000 to 5000 nM
same,IC50,"[5]; Table IC1, BTK inhibitor-based",> 10000 nM
same,IC50,"[6]; Table IC1, BTK inhibitor-based",> 10000 nM
same,IC50,"[7]; Table IC1, BTK inhibitor-based",> 10000 nM
same,IC50,"[8]; Table IC1, BTK inhibitor-based",> 10000 nM
"CC(C)CCN1c2nc(Nc3cc(F)c(O)c(F)c3)ncc2N(C)C(=O)C1C (stereo not drawn) [BI-D1870, reference compound]",Inhibition Rate at 10 nM (%),"[1]; MV-4-11, 10 nM",INa3 (−5% ≤ INa3 ≤ 0%)
same,Inhibition Rate at 500 nM (%),"[1]; MV-4-11, 500 nM",INa7 (20% ≤ INa7 < 30%)
same,Inhibition Rate at 10 nM (%),[9]; 10 nM,INd1 (0% < INd1 < 5%)
same,Inhibition Rate at 500 nM (%),[9]; 500 nM,INd5 (20% ≤ INd5 < 30%)
same,Inhibition Rate at 10 nM (%),[10]; Table IN2,INb2 (−15% < INb2 < −5%)
same,Inhibition Rate at 10 nM (%),[10]; Table IN3,INc1 (0% < INcl < 5%)
same,Inhibition Rate at 500 nM (%),[10]; Table IN2,INb5 (5% ≤ INb5 < 10%)
same,Inhibition Rate at 500 nM (%),[10]; Table IN3,INc3 (10% ≤ INc3 < 15%)
"COc1cc(N2CCC(N3CCN(Cc4ccc5c(c4)CN(N4CCC(=O)NC4=O)C5=O)CC3)CC2)ccc1Nc1ncc(Cl)c(Nc2ccccc2P(C)(C)=O)n1 [GT-08146, 1-(5-((4-(1-(4-((5-chloro-4-((2-(dimethylphosphoryl)phenyl)amino)pyrimidin-2-yl)amino)-3-methoxyphenyl)piperidin-4-yl)piperazin-1-yl)methyl)-1-oxoisoindolin-2-yl)dihydropyrimidine-2,4 (1H,3H)-dione]",inhibition at 0.01 µM,"[1]; Table IB2, ALK inhibitor-based",15 to 20%
same,inhibition at 0.5 µM,"[1]; Table IB2, ALK inhibitor-based",90 to 100%
same,inhibition at 0.01 µM,[2],20 to 30%
same,inhibition at 0.5 µM,[2],60 to 80%
same,inhibition at 0.01 µM,[3]; [14],45 to 55%
same,inhibition at 0.5 µM,[3]; [15],90 to 100%
"CCc1cc2c(cc1N1CCC(N3CCOCC3)CC1)C(C)(C)c1[nH]c3cc(C#N)ccc3c1C2=O [alectinib, Alectinib, reference compound]",inhibition at 0.01 µM,"[1]; Table IB2, ALK inhibitor-based",5 to 10%
same,inhibition at 0.5 µM,"[1]; Table IB2, ALK inhibitor-based",30 to 45%
same,Inhibition Rate at 0.5 μM (%),[11]; 0.5 μM,a (0% < a ≤ 10%)
same,Inhibition Rate at 2 μM (%),[11]; 2 μM,a (0% < a ≤ 10%)
same,inhibition at 0.01 µM,[2],5 to 10%
same,inhibition at 0.5 µM,[2],20 to 30%
same,IC50,"[3]; Table IB1, ALK inhibitor-based",1000 to 5000 nM
same,Inhibition Rate at 10 nM (%),[3]; [14],IBa4 (15% ≤ IBa4 < 20%)
same,Inhibition Rate at 500 nM (%),[3]; [15],IBa10 (80% ≤ IBa10 < 90%)
"COc1cc(N2CCC(N3CCN(Cc4ccc5c(c4)C(=O)N(N4CCC(=O)NC4=O)C5=O)CC3)CC2)ccc1Nc1ncc(Cl)c(Nc2ccccc2P(C)(C)=O)n1 [GT-08147, 5-((4-(1-(4-((5-chloro-4-((2-(dimethylphosphoryl)phenyl)amino)pyrimidin-2-yl)amino)-3-methoxyphenyl)piperidin-4-yl)piperazin-1-yl)methyl)-2-(2,4-dioxotetrahydropyrimidin-1(2H)-yl)isoindoline-1,3-dione]",inhibition at 0.01 µM,"[1]; Table IB2, ALK inhibitor-based",20 to 30%
same,inhibition at 0.5 µM,"[1]; Table IB2, ALK inhibitor-based",60 to 80%
same,inhibition at 0.01 µM,[2],20 to 30%
same,inhibition at 0.5 µM,[2],45 to 55%
same,inhibition at 0.01 µM,[3]; [14],10 to 15%
same,inhibition at 0.5 µM,[3]; [15],90 to 100%
"CC[C@@H]1[C@H](F)C(=O)N[C@@H]1COc1nccc2cc(C(N)=O)c(OC)cc12 [PF06650833, PF-06650833, reference compound]",inhibition at 0.01 µM,[1]; [16],20 to 36%
same,inhibition at 0.5 µM,[1]; [16],20 to 36%
same,IC50,[3]; [17],1000 to 5000 nM
same,IC50,"[5]; Table IA1, IRAK4 inhibitor-based compounds",5000 to 10000 nM
same,inhibition at 0.5 µM,[12],10 to 15%
same,inhibition at 0.01 µM,[13],0 to 5%
same,IC50,[6]; [17],500 to 1000 nM
same,IC50,[7]; [17],> 10000 nM
same,IC50,[8]; [17],5000 to 10000 nM

# Source: patent US20260364184A1, “COMPOUND BASED ON OXOISOINDOLINYL-SUBSTITUTED TETRAHYDROPYRIMIDINE-DIONE AND USE THEREOF” (GLUETACS THERAPEUTICS (SHANGHAI) CO., LTD., priority 2023, published 2026)
